{
  "source": "patent US20250082781A1",
  "about": "“METHODS OF LOWERING BLOOD GLUCOSE AND TREATING TYPE 2 DIABETES BY ACTIVATION OF PDE4D3” (Salk Institute for Biological Studies, priority 2021, published 2025)",
  "key": {"hepatic β-oxidation": {"test_system": "hepatic β-oxidation", "assay": "β-oxidation assay of hepatic mitochondria", "type": "in vivo, mouse", "settings": "ob/ob mice 14 h after FGF1 injection", "experimental": "FIGS. 8A-8E: FGF1 decreases hepatic glucose production via controlling metabolic flux to gluconeogenesis. (FIG. 8A) Pyruvate tolerance test (PTT) (left panel) and glycerol tolerance test (Glycerol TT) of overnight-fasted DIO mice 2 h after vehicle (n=6) or FGF1 (n=7) injection (0.5 mg/kg). Data are represented as mean±SEM (*p<0.05, **p<0.01, ***p<0.001). (FIG. 8B) Schematic diagram showing the steps in hepatic glucose production. […] (FIG. 8C) Relative levels of the key metabolites involved in the citric acid cycle as measured by targeted metabolomic profiling. Data are represented as mean±SEM (vehicle n=5; FGF1 n=6). (FIG. 8D) Pyruvate carboxylase, PEPCK and G6Pase levels in livers of overnight fasted ob/ob mice 2 hours after injection of vehicle or FGF1, as measured by Western blot. Protein levels are normalized to actin for quantification (n=6/arm). (FIG. 8E) β-oxidation assay of hepatic mitochondria from ob/ob mice 14 h after Vehicle (PBS) or FGF1 injection. Mitochondria were incubated with BSA-conjugated ^14C palmitate, and released ^14C CO2 was measured by scintillation counting. Data are represented as mean±SEM (n=5/arm)."}, "PDE4D": {"test_system": "PDE4D", "assay": "Western blot of PDE4D phosphorylation in 3T3-L1 adipocytes", "type": "cell-based", "experimental": "Tissues were lysed in cold lysis buffer (50 mM Tris, pH 7.5, 150 mM NaCl, 1% NP40, 0.5% NaDoc, 0.1% SDS, 5% glycerol, 1 mM EDTA, protease and phosphatase inhibitors (complete and PhosSTOP (Roche)) by homogenization by bead-beater for 30 s. Samples were cleared for 10 min at 18,000 g at 4° C. and the middle clear phase was transferred to new tubes. A second 30 min centrifugation was performed and the middle clear phase was transferred to new tubes. Five ul protein extract was used for BCA assay to determine protein concentration. Samples were boiled in Laemmli buffer. SDS-PAGE and blotting were performed using gradient gels and Trans-Blot Turbo Transfer System (Bio-Rad). Antibodies used were PDE4D (12918-1-AP, Proteintech), pHSL-660 (4126S, Cell signaling), HSL (4107S, Cell Signaling), tubulin (CP06, Millipore Sigma), and GFP (A01388, GenScript). PDE4D3-pS44 phospho-specific antibody was generated using PDE4D3-S44 FRRHpSWISFDVDNGTSAGR peptide (SEQ ID NO: 20) (Mackenzie et al., 2002) by Pocono Rabbit Farm, using 70-day rabbit antibody production protocol and purified via affinity purification. Primary antibodies were incubated for 2 h at room temperature (RT) or overnight (ON) at 4° C. Blots were developed using SuperSignal West Pico PLUS Chemiluminescent Substrate (ThermoFisher Scientific) and imaged with BioRad GelDoc system."}, "[1]": {"test_system": "hepatic gluconeogenic intermediates", "assay": "Hepatic metabolite levels (targeted metabolomics, kits)", "type": "in vivo, mouse", "experimental": "Polar metabolites were extracted and analyzed using a previously reported method (Yuan et al., 2012). Briefly, ob/ob mice were sacrificed by cervical dislocation. Liver pieces (50-100 mg) were snap frozen in liquid nitrogen. 1 ml LC-MS grade 80% methanol chilled at −80° C. was added per 100 mg tissue on dry ice. Samples were homogenized by TissueLyzer and lysates were incubated on dry ice for 30 minutes and centrifuged at 20000 g for 10 minutes. Clarified supernatants were transferred to new tubes. Pellets were extracted again and supernatants were combined. After drying the supernatant under nitrogen gas, extracts were dissolved in H2O (40 μL) and 10 μL were subjected to liquid chromatography mass spectrometry (LC-MS). Polar metabolites were measured by LC-MS using a TSQ Quantiva instrument fitted with a Luna NH2 HPLC column (5.0 μm; 4.6 mm×50 mm, Phenomenex). The following LC solvents were used: buffer A, 95:5 H2O/ACN, 20 mM ammonium hydroxide, 20 mM ammonium acetate; buffer B, 100% ACN. A typical LC run was 23 minutes long with a flow rate of 0.4 ml min-1 and consisted of the following steps: 85 to 30% buffer B over 3 minutes, 30 to 2% buffer B over 9 minutes, 2% buffer B for 3 minutes, 2 to 85% buffer B over 1 minute, and 85% buffer B for 7 minutes. MS analyses were performed using electrospray ionization (ESI) in negative or positive ion mode depending on the metabolites being analyzed. Negative mode and positive mode source parameters were the following: spray voltage 3.5 kV, ion transfer tube temperature of 325° C., and a vaporizer temperature of 275° C.\nLiver samples were prepared from HFD-fed mice as described in Pcx activity assay. After determining Pcx activity from sample homogenates, the remaining supernatant was de-proteinated by perchloric acid (PCA)-KOH method using a commercial kit. De-proteinated samples were used to quantify hepatic metabolites using the commercial kits. Hepatic metabolites concentration was normalized to protein concentration and corrected for the loss of volume due to de-proteinization."}, "adipose tissue explants": {"test_system": "adipose tissue explants", "assay": "Ex vivo lipolysis in adipose explants of treated mice", "parameters": "species or system mouse", "experimental": "For in vitro lipolysis assay, cells were washed with PBS and media were changed to full growth media 1 day before experiment. Cells were serum starved for 2 h and placed in KRBH buffer (30 mM HEPES, 120 mM NaCl, 4 mM KH2PO4, 1 mM MgSO4, 0.75 mM CaCl2), and 10 mM NaHCO3) with 2% fatty acid free BSA and 5 mM glucose. FGF1 was added 10 min before induction of lipolysis with 100 nM isoprotenol (ISO). Inhibitors were added 30 min prior to FGF1 treatment unless otherwise noted. Media were collected and cells were lysed in protein extraction buffer. FFAs were measured in the media using a commercial kit (Wako-NEFAHR2) and normalized to protein concentration. For ex vivo lipolysis, the assay was modified from a published protocol (Funicello et al., 2007). Briefly, approximately 0.1 gram of adipose tissue was excised, weighed and kept in cold PBS until treatment and control tissues were collected. Tissues were cut into small pieces and incubated in same KRBH buffer as described above for 4 h. FFAs were measured and normalized by the explant weights."}, "[2]": {"settings": "livers of ob/ob mice 2 h after FGF1 injection"}},
  "data": [
    {"substance": "FGF1: Recombinant fibroblast growth factor 1 protein, dissolved in PBS, injected subcutaneously", "values": [
      {"measurement": "hepatic β-oxidation", "setting": "hepatic β-oxidation", "value": "absence of any change"},
      {"measurement": "FGF1-induced phosphorylation of PDE4D3 in the S44A mutant", "setting": "PDE4D; 3T3-L1 adipocytes infected with adAAV PDE4D3 S44A", "value": "lost"},
      {"measurement": "S44 phosphorylation of PDE4D3", "setting": "PDE4D; 3T3-L1 cells overexpressing PDE4D3, absence and presence of isoproterenol", "value": "increased S44 phosphorylation"},
      {"measurement": "PDE4D phosphorylation", "setting": "PDE4D; isoproterenol-stimulated, FGF1 co-treatment 100 ng/ml", "value": "increased both the extent and duration of PDE4D phosphorylation"},
      {"measurement": "hepatic gluconeogenic substrates", "setting": "[1]; HFD-fed adR1KO mice, 6 h after FGF1 0.5 mg/kg", "value": "insensitive to FGF1 treatment"},
      {"measurement": "reductions in hepatic gluconeogenic substrates", "setting": "[1]; HFD-fed adR1WT mice, 6 h after FGF1 0.5 mg/kg", "value": "largely recapitulated"},
      {"measurement": "hepatic TCA cycle metabolites", "setting": "[1]; [2]", "value": "not affected"},
      {"measurement": "hepatic acetyl-CoA levels", "setting": "[1]; [2]", "value": "decreased"},
      {"measurement": "hepatic intermediates downstream of pyruvate (G6P, F6P, PG, PEP, OAA)", "setting": "[1]; [2]", "value": "reduced"},
      {"measurement": "lipolysis in brown adipose tissue", "setting": "adipose tissue explants; BAT explants, chow-fed mice, 6 h after FGF1 0.5 mg/kg", "value": "did not affect lipolysis in brown adipose tissue"},
      {"measurement": "FGF1 suppression of lipolysis in adipose explants under PDE4 inhibition", "setting": "adipose tissue explants; DIO mice gavaged with PDE4 inhibitor 1 h prior to FGF1 injection", "value": "blocked the ability of FGF1 to suppress lipolysis"},
      {"measurement": "ex vivo lipolysis", "setting": "adipose tissue explants; gWAT and iWAT explants, DIO adR1WT vs adR1KO, 2 h after FGF1 0.5 mg/kg", "value": "suppressed"}
    ]}
  ]
}
